# Data from patent publication US8361970B2, “Growth factor binding molecules” (University of South Florida, priority 2000, dated 2013).
# pIC50: −log10 of the molar value. Where “and” joins values, the source holds several entries; their conditions need not be identical. Equal entries are not always repeated.
# Columns and labels:
# [1] = tested on: human medulloblastoma DaOY; experiment: Antitumor efficacy, DaOY xenograft in nude mice; type: in vivo; details: 50 mg per kg per day
# [2] = tested on: IGF-1 stimulated IGF-1R tyrosine phosphorylation; experiment: Inhibition of IGF-1 stimulated IGFR tyrosine phosphorylation in IGFR/3T3 cells; type: cell-based; details: 100 μM; IGFR/3T3, IGF-1 stimulated
# [3] = tested on: angiogenesis in C6 tumors; experiment: Angiogenesis: microvessel count in C6 tumors; type: in vivo, nude mice
# Protocol: (§1) On the indicated termination day of each nude mouse experiment described above, (see also Table 2), the tumors are extracted and half frozen at −70° C., and half is fixed in 10% neutral buffered formalin for 6 hrs. After fixation the tissue samples are processed into paraffin blocks. Four micrometer-thick tissue sections are obtained from the paraffin blocks and stained with hematoxylin and eosin (H&E) (Richard-Allan Scientific, Kalamazoo, Mich.) using standard histologic techniques. Tissue sections are also subjected to immunostaining for Factor VIII using the avidin biotin peroxidase complex technique (Vectastatin Elite ABC Kit, Vector, Burlingame, Calif.). Rabbit polyclonal FVIII antibody (Von Willebrand Factor, Dako Corporation, Carpinteria, Calif.) is used at 1:400 dilution, following microwave antigen retrieval (4 cycles of 5 minutes each on high in 0.1M citrate buffer).
# IGF-1 = target: T1, IGF-1 (Homo sapiens, UniProt P05019); experiment: Inhibition of [125I]-IGF-1 binding to NIH 3T3 cells overexpressing IGF-1R; details: 10 μM
# T1 construct: host or cells: NIH 3T3 cells transfected with the IGF-1R gene carry the receptor
# Protocol: (§2) NIH 3T3 (PDGF) or NIH 3T3 cells overexpressing either EGFR (EGF), IGFR (IGF) or Flk-1 (VEGF), are incubated with [^125I]-PDGF, [^125I]-EGF, [^125I]-IGF or [^125I]-VEGF, respectively (50,000 cpm per well) and increasing concentrations of GFB-111 or GFB-116. Cells are incubated at 4° C. for 1-3 h. After discarding media, the cells are washed 3 times with PBS and three times with Tris 25 mM pH 8.0, 1% T-X-100, 10% glycerol, 1% SDS. Lysates plus wash are counted. Excess of cold growth factors is used to obtain non-specific binding levels.
# (§3) Whether GFB 111 can block [^125I]-PDGF-BB specific binding in NIH 3T3 cells is determined by pre-treatment of the PDGF-BB with increasing concentrations of GFB-111. FIG. 2C illustrates that in the absence of GFB-111, [^125I]-PDGF-BB is bound by NIH3T3 cells. However, pre-treatment with increasing concentrations of GFB-111, results in a concentration-dependent decrease in PDGF-BB binding.
# EGF = target: T2, EGF (Homo sapiens, UniProt P01133); experiment: Inhibition of [125I]-EGF binding to NIH 3T3 cells overexpressing EGFR; details: 10 μM
# T2 construct: host or cells: NIH 3T3 cells overexpressing EGFR carry the receptor
# Protocol: as §2, §3
# [4] = tested on: angiogenesis in U87-MG tumors; experiment: Angiogenesis: Factor VIII immunostaining and microvessel count in U87MG tumors; type: in vivo, nude mice; details: for Microvessel count (Mean ± SD) 250X / Microvessel count (Mean ± SD) 400X: U87-MG tumor
# Protocol: as §1
# [5] = tested on: angiogenesis in A-549 tumors; experiment: Angiogenesis: Factor VIII immunostaining and microvessel count in A-549 tumors; type: in vivo, nude mice; details: for Microvessel count (Mean ± SD) 250X / Microvessel count (Mean ± SD) 400X: A-549 tumor
# Protocol: as §1
# [6] = tested on: PDGF-BB stimulated DNA synthesis in NIH 3T3 cells; type: cell-based; details: 3 h
# Protocol: Starved NIH 3T3 or NIH 3T3 overexpressing IGFR are treated for 16 hours with indicated concentrations of GFB-111 and either 10 ng/ml PDGF or 50 ng/ml IGF-1, respectively, then labeled for 2 hr (NIH 3T3) or 4 hr (IGFR) with ^3H-thymidine. Cells are then washed in PBS, lysed in 0.1N NaOH and spotted onto glass fiber filters. DNA is precipitated with ice cold ethanol then ^3H-thymidine incorporation quantified by scintillation counting.
# The selectivity of PDGF-induced cellular responses, is evaluated by the selectivity of GFB-111 to inhibit growth factor-stimulated DNA synthesis using a [^3H]-thymidine incorporation assay. […] In contrast GFB-111 is ineffective at inhibiting IGF-1-stimulated DNA synthesis at concentrations as high as 100 μM (FIG. 4).
# VEGF = target: T3, VEGF (Homo sapiens, UniProt P15692); experiment: Inhibition of [125I]-VEGF binding to NIH 3T3 cells overexpressing VEGFR (Flk-1)
# T3 construct: host or cells: NIH 3T3 cells overexpressing Flk-1 carry the receptor
# Protocol: as §2, §3
# [7] = tested on: bFGF-activation of Erk1/Erk2; experiment: bFGF activation of Erk1/Erk2 in NIH 3T3 cells; type: cell-based; details: concentrations as high as 100 μM
# Protocol: In other experiments, starved NIH 3T3 cells (PDGF-AA, PDGF-BB, aFGF, bFGF), NIH 3T3 cells overexpressing EGFR. IGF-1R or Flk-1 and the human breast carcinoma SkBr3 that overexpresses ErbB2 (HRGβ) are pretreated with GFB-111 (100 μM) for 5 min before 10 min stimulation with the indicated growth factors at the concentrations shown above and aFGF (10 ng/ml), bFGF (50 ng/ml), IGF-1 (50 ng/ml) and HRGβ (10 ng/ml). Cell lysates are then immunoblotted with anti-phospho Erk1/Erk2 as described above.
# [8] = target: IGF-1 (insulin-like growth factor-1) (Homo sapiens, UniProt P05019); experiment: Binding to IGF-1 by gel electrophoresis
# [9] = tested on: PDGF-stimulated PDGFR tyrosine phosphorylation; experiment: Inhibition of PDGF-stimulated PDGFR tyrosine phosphorylation in NIH 3T3 cells (anti-phosphotyrosine Western blot); type: cell-based; details: concentrations as high as 10 mM
# B16-F10 melanoma = B16-F10 melanoma tumor growth in immune-competent mice; type: in vivo; details: immune-competent mouse model
# T1 sequence (P05019 49-118 limits assumed, species assumed): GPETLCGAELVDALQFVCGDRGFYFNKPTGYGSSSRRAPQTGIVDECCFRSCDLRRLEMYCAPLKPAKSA
# Chain of IGF-1 (insulin-like growth factor-1) (P05019 49-118 limits assumed, species assumed): as above
# T3 sequence (P15692 27-191 isoform P15692-4, species assumed): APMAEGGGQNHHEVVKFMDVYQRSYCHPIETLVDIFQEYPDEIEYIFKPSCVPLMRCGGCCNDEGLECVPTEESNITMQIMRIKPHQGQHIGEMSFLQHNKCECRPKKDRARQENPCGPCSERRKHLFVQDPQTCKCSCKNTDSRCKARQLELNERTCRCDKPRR
# T2 sequence (P01133 971-1023 limits assumed, species assumed): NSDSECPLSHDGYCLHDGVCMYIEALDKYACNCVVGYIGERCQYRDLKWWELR
molecule,measurement,setting,value
CCCCOc1c2cc(C(=O)Nc3cc4cc(c3)C(=O)NCC(=O)N[C@@H](CC(=O)O)C(=O)NCC(=O)N[C@@H](Cc3ccc(O)cc3)C(=O)NC4)cc1Cc1cc(C(=O)Nc3cc4cc(c3)C(=O)NCC(=O)N[C@@H](CC(=O)O)C(=O)NCC(=O)N[C@@H](Cc3ccc(O)cc3)C(=O)NC4)cc(c1OCCCC)Cc1cc(C(=O)Nc3cc4cc(c3)C(=O)NCC(=O)N[C@@H](CC(=O)O)C(=O)NCC(=O)N[C@@H](Cc3ccc(O)cc3)C(=O)NC4)cc(c1OCCCC)Cc1cc(C(=O)Nc3cc4cc(c3)C(=O)NCC(=O)N[C@@H](CC(=O)O)C(=O)NCC(=O)N[C@@H](Cc3ccc(O)cc3)C(=O)NC4)cc(c1OCCCC)C2 [GFB-111],Growth of DaOY tumors,[1],minimally affected
same,% Inhibition at 100 μM IGF1R-Y-P,[2],−12.4%
same,Microvessel count (Mean ± SD) 250X,"[3]; C6 tumor, 50 mpk",14.27 ± 4.79
same,Microvessel count (Mean ± SD) 400X,"[3]; C6 tumor, 50 mpk",7.97 ± 2.83
same,Inhibition of angiogenesis,[3]; C6 tumors,to a lesser degree
same,Effect on [125I]-IGF-1 binding,IGF-1,lack of significant effects
same,Effect on [125I]-EGF binding,EGF,lack of significant effects
same,Microvessel count (Mean ± SD) 250X,[4]; 100 mpk,7.73 ± 2.61
same,Microvessel count (Mean ± SD) 400X,[4]; 100 mpk,5.20 ± 1.71
same,Microvessel count (Mean ± SD) 250X,[4]; 200 mpk,5.13 ± 3.10
same,Microvessel count (Mean ± SD) 400X,[4]; 200 mpk,3.07 ± 1.94
same,Inhibition of angiogenesis,[4]; U87MG tumors,strongly
same,Factor VIII immunostaining in tumors,"[4]; U87MG, day 32, 50, 100 and 200 mg per kg",decreased in a dose-dependent manner
same,Microvessel count (Mean ± SD) 250X,"[5]; 50 mpk, 50 mg/kg",3.63 ± 1.36 and 5.68 ± 1.74
same,Microvessel count (Mean ± SD) 400X,"[5]; 50 mpk, 50 mg/kg",2.34 ± 1.01 and 3.58 ± 1.01
same,Inhibition of angiogenesis,[5]; A-549 tumors,strongly
same,pIC50,[6],5.19
same,inhibition at 10 µM,VEGF,50%
same,bFGF-activation of Erk1/Erk2,[7],minimally affected
same,Binding to IGF-1,[8],does not bind
GKGK [GFB-116],Inhibition of PDGF-stimulated PDGFR tyrosine phosphorylation,[9],does not inhibit
same,Microvessel count (Mean ± SD) 250X,[5]; 50 mpk,5.56 ± 1.75
same,Microvessel count (Mean ± SD) 400X,[5]; 50 mpk,3.46 ± 1.19
same,Inhibition of angiogenesis,[5]; A-549 tumors,efficacious
same,Inhibition of angiogenesis by microvessel counting,"[5]; A-549 tumors, 50 mpk",70%
same,Inhibition of growth of B16-F10 melanoma,B16-F10 melanoma,effective
